Laboratory results reported in paper PMC7914897, “Cytotoxic Potential of a-Azepano- and 3-Amino-3,4-SeCo-Triterpenoids” (International Journal of Molecular Sciences, 2021).
Where two headings read alike, the source gives them in different places.

What was measured:
SNB-75 (CNS cancer) = assay: NCI-60 screen (SRB, 48 h); details: Homo sapiens
SK-OV-3 (Ovarian cancer) = assay: NCI-60 screen (SRB, 48 h); details: Homo sapiens
[1] = test system: NCI/ADR-RES (Ovarian cancer); assay: NCI-60 screen (SRB, 48 h); details: Homo sapiens
[2] = test system: MDA-MB-468 (Breast cancer); assay: cells; details: Homo sapiens
ACHN (Renal cancer) = assay: NCI-60 screen (SRB, 48 h); details: Homo sapiens
[3] = test system: NIH 3T3 (non-malignant mouse fibroblasts); assay: SRB cytotoxicity assay, 72 h; format: cell-based; details: Mus musculus, NIH3T3; NIH 3T3, 72 h, cut-off 30 µM; read-out: EC50
Procedure, shortened: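 EC50 values reflect percent surviving cells versus untreated controls, read at 570 nm after SRB staining of TCA-fixed monolayers. Dosing spanned 0–30 µM over 72 h.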

A498 (Renal cancer) = assay: NCI-60 screen (SRB, 48 h); details: Homo sapiens
Colon Cancer subpanel = assay: NCI-60 screen, subpanel; details: Homo sapiens
EKVX (NSC lung cancer) = assay: NCI-60 screen (SRB, 48 h); details: Homo sapiens
HCT-116 (Colon cancer) = assay: NCI-60 screen (SRB, 48 h); details: Homo sapiens
Renal Cancer subpanel = assay: NCI-60 screen, subpanel; details: Homo sapiens
[4] = test system: MDA-MB-31/ATCC (Breast cancer); assay: NCI-60 screen (SRB, 48 h); details: Homo sapiens
HOP-62 (NSC lung cancer) = assay: NCI-60 screen (SRB, 48 h); details: Homo sapiens
BT-549 (Breast cancer) = assay: NCI-60 screen (SRB, 48 h); format: cell-based; details: Homo sapiens
PC-3 (Prostate cancer) = assay: NCI-60 screen (SRB, 48 h); details: Homo sapiens
OVCAR-8 (Ovarian cancer) = assay: NCI-60 screen (SRB, 48 h)
[5] = test system: NCI-H322M (NSC lung cancer); assay: NCI-60 screen (SRB, 48 h); details: Homo sapiens
SN12C (Renal cancer) = assay: NCI-60 screen (SRB, 48 h); details: Homo sapiens
[6] = test system: panel of approximately 60 cancer cell lines; assay: NCI-60 screen (SRB, 48 h), full panel
786-0 (Renal cancer) = assay: NCI-60 screen (SRB, 48 h); details: Homo sapiens
OVCAR-4 (Ovarian cancer) = assay: NCI-60 screen (SRB, 48 h); format: cell-based; details: Homo sapiens
UACC-62 (Melanoma) = assay: NCI-60 screen (SRB, 48 h); details: Homo sapiens

Molecule CC(C)=C1CCC=C2CC[C@]3(C)[C@H](CC[C@@H]4[C@@]5(C)CCCNC(C)(C)[C@@H]5CC[C@]43C)[C@H]21 [Compound 9] has a GI50 (SNB-75 (CNS cancer); SNB-75) of 1.98 µM, an IC (TGI) (SNB-75 (CNS cancer); SNB-75, 48 h, read-out: TGI) of 3.84 µM and a CC50 (SNB-75 (CNS cancer); SNB-75, read-out: LC50) of 7.44 µM. For the same molecule, the GI50 (SK-OV-3 (Ovarian cancer); SK-OV-3) was 1.89 µM, the IC (TGI) (SK-OV-3 (Ovarian cancer); SK-OV-3, 48 h, read-out: TGI) was 3.5 µM and the CC50 (SK-OV-3 (Ovarian cancer); SK-OV-3, read-out: LC50) was 6.46 µM. For the same molecule, the GI50 [1] was 1.84 µM, the IC (TGI) ([1]; 48 h, read-out: TGI) was 3.52 µM and the CC50 ([1]; read-out: LC50) was 6.73 µM. For the same molecule, the GI50 ([2]; MDA-MB-468) was 1.68 µM, the IC (TGI) ([2]; MDA-MB-468, 48 h, read-out: TGI) was 3.3 µM and the CC50 ([2]; MDA-MB-468, read-out: LC50) was 6.5 µM. The GI50 (ACHN (Renal cancer)) was 1.76 µM, the IC (TGI) (ACHN (Renal cancer); 48 h, read-out: TGI) was 3.14 µM and the CC50 (ACHN (Renal cancer); read-out: LC50) was 5.62 µM. For the same molecule, the EC50 [3] was 2.65 ± 0.5 µM, the GI50 (A498 (Renal cancer); A498) was 1.87 µM and the IC (TGI) (A498 (Renal cancer); A498, 48 h, read-out: TGI) was 3.6 µM. For the same molecule, the CC50 (A498 (Renal cancer); A498, read-out: LC50) was 6.93 µM, the IC (TGI) (Colon Cancer subpanel; 48 h, read-out: TGI MG_MID) was 3.03 µM and the GI50 (Colon Cancer subpanel; read-out: GI50 MG_MID) was 1.55 µM. It also gave a GI50 (EKVX (NSC lung cancer)) of 1.74 µM, an IC (TGI) (EKVX (NSC lung cancer); 48 h, read-out: TGI) of 3.38 µM and a CC50 (EKVX (NSC lung cancer); read-out: LC50) of 6.56 µM. It also gave a GI50 (HCT-116 (Colon cancer); HCT-116) of 1.73 µM, an IC (TGI) (HCT-116 (Colon cancer); HCT-116, 48 h, read-out: TGI) of 3.31 µM and an IC (TGI) (Renal Cancer subpanel; 48 h, read-out: TGI MG_MID) of 3.25 µM. For the same molecule, the GI50 (Renal Cancer subpanel; read-out: GI50 MG_MID) was 1.72 µM, the CC50 (Renal Cancer subpanel; read-out: LC50 MG_MID) was 6.03 µM and the GI50 [4] was 1.8 µM. For the same molecule, the IC (TGI) ([4]; 48 h, read-out: TGI) was 3.47 µM, the CC50 ([4]; read-out: LC50) was 6.69 µM and the GI50 (HOP-62 (NSC lung cancer); HOP-62) was 1.7 µM. For the same molecule, the IC (TGI) (HOP-62 (NSC lung cancer); HOP-62, 48 h, read-out: TGI) was 3.25 µM, the GI50 (BT-549 (Breast cancer); BT-549) was 1.66 µM and the IC (TGI) (BT-549 (Breast cancer); BT-549, 48 h) was 3.14 µM. The CC50 (BT-549 (Breast cancer); BT-549, read-out: LC50 (the source's name)) was 5.96 µM, the GI50 (PC-3 (Prostate cancer); PC-3) was 1.58 µM and the IC (TGI) (PC-3 (Prostate cancer); PC-3, 48 h, read-out: TGI) was 3.02 µM. The CC50 (PC-3 (Prostate cancer); PC-3, read-out: LC50) was 5.78 µM, the GI50 (OVCAR-8 (Ovarian cancer); Homo sapiens, OVCAR-8) was 2.01 µM and the IC (TGI) (OVCAR-8 (Ovarian cancer); Homo sapiens, OVCAR-8, 48 h, read-out: TGI) was 4.25 µM. The “Growth % of the Most Sensitive Cell Lines” value (OVCAR-8 (Ovarian cancer); OVCAR-8, 1 dose 10 µM) was −87.34%, the GI50 [5] was 1.68 µM and the IC (TGI) ([5]; 48 h, read-out: TGI) was 3.07 µM. It also gave a CC50 ([5]; read-out: LC50) of 5.61 µM, a GI50 (SN12C (Renal cancer)) of 1.83 µM and an IC (TGI) (SN12C (Renal cancer); 48 h, read-out: TGI) of 3.44 µM. The CC50 (SN12C (Renal cancer); read-out: LC50) was 6.45 µM, the “Positive Cytostatic Effect (cell lines with percent growth 0 to 50 / total)” value ([6]; 1 dose 10 µM) was 15/58 and the “Positive Cytotoxic Effect (cell lines with percent growth < 0 / total)” value ([6]; 1 dose 10 µM) was 24/58. The “number of cancer cell lines the compound was active against” value ([6]; 1 dose 10 µM) was 36 cell lines, the activity at 10 µM ([6]; Homo sapiens, 48 h, read-out: Mean Growth, %) was 13.6% and the activity at 10 µM ([6]; Homo sapiens, 48 h, read-out: Range of Growth, %) was -100 to 107%. For the same molecule, the IC (TGI) ([6]; Homo sapiens, 48 h, read-out: TGI MG_MID60, average over all cell lines) was 3.35 µM, the GI50 ([6]; Homo sapiens, read-out: GI50 MG_MID60) was 1.75 µM and the GI50 ([6]; Homo sapiens, read-out: GI50 against all human tumor cell lines) was under 3 µM. It also gave a GI50 ([6]; Homo sapiens, read-out: GI50 against the most sensitive cell lines) of 0.2 to 0.94 µM, a CC50 ([6]; Homo sapiens, read-out: LC50 MG_MID60, average over all cell lines) of 6.43 µM and a GI50 (786-0 (Renal cancer); 786-0) of 1.71 µM. The IC (TGI) (786-0 (Renal cancer); 786-0, 48 h, read-out: TGI) was 3.48 µM, the IC (TGI) (OVCAR-4 (Ovarian cancer); OVCAR-4, 48 h) was 3.6 µM and the GI50 (OVCAR-4 (Ovarian cancer); OVCAR-4, read-out: GI50) was 1.99 µM. The GI50 (UACC-62 (Melanoma); UACC-62) was 1.77 µM, the IC (TGI) (UACC-62 (Melanoma); UACC-62, 48 h, read-out: TGI) was 3.22 µM and the CC50 (UACC-62 (Melanoma); UACC-62, read-out: LC50) was 5.85 µM.
